This note sets out measurements from patent US20150217006A1, “AL-F-18-LABELED, AL-F-19-LABELED AND GA-68-LABELED GASTRIN-RELEASING PEPTIDE RECEPTOR (GRPR)-ANTAGONISTS FOR IMAGING OF PROSTATE CANCER” (Immunomedics, Inc., priority 2014, published 2015).

Read-outs that look alike come from different tables or passages of the source. Residues, ends and D or L forms follow the SMILES beside them.

The test system of series [1] is GRPR-positive PC-3 tumors. Put plainly: Small-animal PET/CT and biodistribution in mice bearing s.c. PC-3 xenografts. The note with it: for tumor uptake after co-injection of excess unlabeled peptide (GRPR-specificity): co-injection of 100-fold excess of unlabeled JMV4168 or JMV5132.
Method: (§1) 2-3 weeks after inoculation, when tumor size averaged 200 mm^3, mice were injected intravenously with 5-10 MBq of radiolabeled peptide (200 pmol, 200 μL). To determine the receptor-mediated localization of the radiolabeled peptides, additional animals were co-injected with an excess (20 nmol) of unlabeled peptide. Mice were euthanized 1 h or 2 h post injection (p.i.) by CO2/O2 asphyxiation. Mice were first scanned in prone position on a small animal PET/CT scanner (Inveon; Siemens Preclinical Solutions). PET emission scans were acquired for 30-60 min, followed by a CT scan (spatial resolution 113.15 μm; 80 kV; and 500 μA). Scans were reconstructed using Inveon Acquisition Workplace software (version 1.5; Siemens Preclinical Solutions), using a 3-dimensional ordered-subset expectation maximization/maximization a posteriori algorithm with the following parameters: matrix, 256×256×161; pixel size, 0.40×0.40×0.796 mm; and β-value, 1.5, with uniform variance and FastMAP. After scanning, blood, tumor, and relevant organs and tissues were collected, weighed and counted in a γ-counter. The percentage injected dose per gram (% ID/g) was determined for each tissue sample.
(§2) Statistical analysis was performed using GraphPad Prism version 5.01 (San Diego, Calif., USA). […] Statistical analysis on biodistribution data was performed using a 1-way ANOVA with a Bonferroni post-hoc test, and the level of significance was set at P less than 0.05.
Series [2] deals with GRPR-positive PC-3 tumors. As to conditions: mouse, in vivo.
Method: as §1, §2
Series [3] deals with T1, PC-3 cells (gastrin-releasing peptide receptor) (Homo sapiens, UniProt P30550).
T1 construct: 3×10^6 PC-3 cells were exposed to a constant amount (˜50,000 cpms) of ^125I-Bombesin; endogenous in cells; host or cells: PC-3 cells
T1 sequence (P30550 whole entry): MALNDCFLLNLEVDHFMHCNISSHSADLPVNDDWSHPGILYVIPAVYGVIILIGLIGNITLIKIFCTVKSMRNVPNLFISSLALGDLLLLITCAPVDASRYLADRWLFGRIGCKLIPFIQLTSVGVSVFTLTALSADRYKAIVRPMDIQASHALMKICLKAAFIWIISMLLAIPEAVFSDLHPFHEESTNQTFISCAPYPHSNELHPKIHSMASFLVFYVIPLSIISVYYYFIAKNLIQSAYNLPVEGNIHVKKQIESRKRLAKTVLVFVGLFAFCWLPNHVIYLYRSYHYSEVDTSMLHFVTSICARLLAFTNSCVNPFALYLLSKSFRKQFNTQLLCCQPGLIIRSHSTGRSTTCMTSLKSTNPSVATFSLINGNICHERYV
Put plainly: Blocking of 125I-Bombesin binding to PC-3 cells. The note with it: 56 to 0.44 nM. The procedure:
A NOTA-conjugated bombesin derivative (IMP468) was prepared as described above. […] Our initial experiment was to determine if IMP468 could specifically block bombesin from binding to PC-3 cells. We used IMP333 as a non-specific control. […] A range of 56 to 0.44 nM was used as our inhibitory concentrations.
This experiment was repeated using a commercially available BBN peptide.

The nature of series [4]: Small-animal PET/CT and biodistribution in mice bearing s.c. PC-3 xenografts. The note with it: male, nude BALB/c, mouse, iv, 200 pmol, total radioactivity, 200 pmol.
Method: as §1, §2
Series [5] is described as follows: Octanol/water partition coefficient. The class given is physicochemical. As to conditions: pH 7.4, octanol / PBS pH 7.4, n=3; read-out: log P octanol/water. As to the method:
Octanol/Water Partition Coefficient The radiolabeled peptide (1 MBq) was diluted in 500 μL phosphate-buffered saline (pH 7.4) and mixed vigorously with 500 μL octanol for 2 min using a vortex mixer. The two layers were separated by centrifugation (1000 rpm, 5 min).

A further series is described as follows: in vivo. As to conditions: male, nude BALB/c, mouse, iv, 200 pmol, total radioactivity, uptake in PC-3 tumors.
Setting [6] is: male, nude BALB/c, iv, 200 pmol, 2 h.

Method for in vivo: as §1, §2

Consider `CC(C)C[C@H](NC(=O)C[C@H](O)[C@H](CC(C)C)NC(=O)[C@H](Cc1c[nH]cn1)NC(=O)CNC(=O)[C@@H](NC(=O)[C@H](C)NC(=O)[C@H](Cc1c[nH]c2ccccc12)NC(=O)[C@H](CCC(N)=O)NC(=O)[C@@H](Cc1ccccc1)NC(=O)CCNC(=O)CCNC(=O)Cc1ccc(CN2CCN(CC(=O)O)CCN(CC(=O)O)CC2)cc1)C(C)C)C(N)=O` [Al^18F-JMV5132], for which, in series [1], the “tumor uptake after co-injection of excess unlabeled peptide (GRPR-specificity)” value is “significantly reduced”. In addition, in series [2] (setting [6]), the remaining in blood is 0.05±0.01 % ID/g and the “uptake in PC-3 tumors” value was 5.30±0.98 % ID/g.
Regarding `CSCC[C@H](NC(=O)[C@H](CC(C)C)NC(=O)[C@H](Cc1c[nH]cn1)NC(=O)CNC(=O)[C@@H](NC(=O)[C@H](C)NC(=O)[C@H](Cc1c[nH]c2ccccc12)NC(=O)[C@@H](NC(=O)[C@H](Cc1c[nH]c2ccccc12)NC(=O)[C@H](CCC(N)=O)NC(=O)CCCCCCCNC(=O)CN1CCN(CC(=O)O)CCN(CC(=O)O)CC1)C(C)C)C(C)C)C(N)=O` [IMP468] (HELM PEPTIDE1{[O=C(O)CN1CCN(CC(=O)O)CCN(CC(=O)[*:2])CC1].[O=C(CCCCCCCN[*:1])[*:2]].Q.W.V.W.A.V.G.H.L.M.[am]}$$$$V2.0), in series [3], the “block the binding of 125I-BBN” value is “could block”.
In general, tissue uptake refers to the percentage of the injected dose found per gram of tissue. On to `CC(C)C[C@H](NC(=O)C[C@H](O)[C@H](CC(C)C)NC(=O)[C@H](Cc1c[nH]cn1)NC(=O)CNC(=O)[C@@H](NC(=O)[C@H](C)NC(=O)[C@H](Cc1c[nH]c2ccccc12)NC(=O)[C@H](CCC(N)=O)NC(=O)[C@@H](Cc1ccccc1)NC(=O)CCNC(=O)CCNC(=O)CN1CCN(CC(=O)O)CCN(CC(=O)O)CCN(CC(=O)O)CC1)C(C)C)C(N)=O` [^68Ga-JMV4168, metal not drawn], for which the “pancreas uptake decreased by a factor” value in series [1] (from 1 h to 2 h p.i.) is 6.1. Also, in series [1] (mice with s.c. PC-3 xenografts), the “clearance / excretion route” value is on record as “exclusively via the kidney”. Also, the tissue uptake at 2 h in series [4] (PC-3 tumor, uptake in PC-3 tumors, 2 h after injection, i.v.) was determined as 5.96 ± 1.39 %ID/g; in series [4] (blood, remaining in blood, 2 h p.i.) it was 0.09 ± 0.04 %ID/g. The logP in series [5] is -2.53 ± 0.04.
`CC(C)C[C@H](NC(=O)C[C@H](O)[C@H](CC(C)C)NC(=O)[C@H](Cc1c[nH]cn1)NC(=O)CNC(=O)[C@@H](NC(=O)[C@H](C)NC(=O)[C@H](Cc1c[nH]c2ccccc12)NC(=O)[C@H](CCC(N)=O)NC(=O)[C@@H](Cc1ccccc1)NC(=O)CCNC(=O)CCNC(=O)Cc1ccc(CN2CCN(CC(=O)O)CCN(CC(=O)O)CC2)cc1)C(C)C)C(N)=O` [^68Ga-JMV5132, metal not drawn]: the tissue uptake at 2 h in “in vivo” was 5.24 ± 0.29 %ID/g. The “tumor uptake after co-injection of excess unlabeled peptide (GRPR-specificity)” value in series [1] was “significantly reduced”. Besides, the remaining in blood in series [2] (setting [6]) turned out to be 0.19±0.13 % ID/g. The “clearance / excretion route” value in series [2] is “partially hepatobiliary”.
